Data as given in patent US20120264827A1, “SULFANYLAMIDE DERIVATIVES, USES THEREOF AND COMPOSITIONS COMPRISING THEM” (YISSUM RESEARCH DEVELOPMENT COMPANY OF THE HEBREW …, priority 2009, published 2012).
Read-outs that look alike come from different tables or passages of the source.

Key:
[1] = tested on: maximal electroshock seizure (MES); test: Maximal electroshock seizure test (MES), mice, intraperitoneal; format: in vivo; details: ip;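 also: adult male CF no. 1 albino mice of 18–25 g, given compound intraperitoneally as a 0.5% methylcellulose suspension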
[2] = tested on: subcutaneous metrazol (pentylenetetrazol) seizure; test: Subcutaneous metrazol seizure threshold test (scMet), mice, intraperitoneal; format: in vivo; details: ip;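 also: adult male CF no. 1 albino mice weighing 18-25 g, dosed intraperitoneally with compounds suspended in 0.5% methylcellulose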
[3] = tested on: subcutaneous metrazol (pentylenetetrazol) seizure; details: for PI, protective index (PI = TD50/ED50) in the scMet test: male, Sprague-Dawley, rat, in vivo, po
Method: (§1) The evaluation of the anticonvulsant activity in the maximal electroshock seizure test (MES) and subcutaneous metrazol seizure threshold test (scMet) and the determination of neurotoxicity in the rotorod test, positional sense test, and others were performed according to the protocols described in White, H. S., Woodhead J. H., Wilcox K. S., Stables J. P., Kupferberg H. J., Wolf H. H., Discovery and Preclinical Development of Antiepileptic Drugs; 5th ed.; Lippincott Williams &Wilkins: New york, 2002; 36-48.
(§2) The tested compounds were suspended in 0.5% methylcellulose and administered (a) intraperitioneally (ip) to adult male CF no. 1 albino mice (18-25 g) in volume of 0.01 mL/g body weight and (b) orally to adult male Sprague-Dawley albino rats (100-150 g) in volume of 0.04 mL per 10 g of body weight. The pentylenetetrazol solution at convulsing dose was prepared by sufficient dissolution of pentylenetetrazol in 0.9% saline to make 0.85% solution for administration to mice and a 2.82% solution for administration to rats.
(§3) The TD50 was determined by varying the dose of the tested compounds until four points were established between the dose level that induced no signs of minimal motor impairment in any of the animals and the dose at which all the animals were considered impaired. […] The PIs were calculated by dividing the TD50 by the ED50.

in vivo = details: male, Sprague-Dawley, rat, po
Method: (§4) The tested compounds were suspended in 0.5% methylcellulose and administered (a) intraperitioneally (ip) to adult male CF no. 1 albino mice (18-25 g) in volume of 0.01 mL/g body weight and (b) orally to adult male Sprague-Dawley albino rats (100-150 g) in volume of 0.04 mL per 10 g of body weight.
as §3

[4] = tested on: subcutaneous metrazol (pentylenetetrazol) seizure; test: animal or person; details: Rattus norvegicus, po, read-out: scMet ED50
Method: as §1, §2, §3

[5] = tested on: maximal electroshock seizure (MES); test: Maximal electroshock seizure test (MES), rats, oral; details: for responders at 30 mg/kg / ED50: Rattus norvegicus, po; for responders at 30 mg/kg: read-out: Anti-MES activity (number of animals protected/number of animals tested); for ED50: read-out: MES ED50, rats dosed orally;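 as to all read-outs here: adult male Sprague-Dawley rats received test compounds by mouth as a suspension in 0.5% methylcellulose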
Method: as §4, §3

[6] = 30 mg/kg, 0.5 h after administration
[7] = 30 mg/kg, 4 h after administration
[8] = 100 mg/kg, 0.5 h after administration
[9] = 100 mg/kg, 4 h after administration
[10] = 300 mg/kg, 0.5 h after administration
[11] = 300 mg/kg, 4 h after administration
[12] = interval in parentheses = 95% confidence interval

| melting point [°C] | Structure (SMILES) | MES (number of animals protected/number of animals tested) [1, 6] | MES (number of animals protected/number of animals tested) [1, 7] | MES (number of animals protected/number of animals tested) [1, 8] | MES (number of animals protected/number of animals tested) [1, 9] | MES (number of animals protected/number of animals tested) [1, 10] | MES (number of animals protected/number of animals tested) [1, 11] | scMet (number of animals protected/number of animals tested) [2, 6] | scMet (number of animals protected/number of animals tested) [2, 7] | scMet (number of animals protected/number of animals tested) [2, 8] | scMet (number of animals protected/number of animals tested) [2, 9] | scMet (number of animals protected/number of animals tested) [2, 10] | scMet (number of animals protected/number of animals tested) [2, 11] | responders at 30 mg/kg ([5]; 0.5 h) [%] | responders at 30 mg/kg ([5]; 1 h) [%] | responders at 30 mg/kg ([5]; 2 h) [%] | responders at 30 mg/kg ([5]; 4 h) [%] | responders at 30 mg/kg ([5]; […]) [%] | further results |
| --- | --- | --- | --- | --- | --- | --- | --- | --- | --- | --- | --- | --- | --- | --- | --- | --- | --- | --- | --- |
| 223 to 226 | CCCC(C(=O)Nc1ccc(S(N)(=O)=O)cc1)C(C)CC (centres unmarked) [Compound 21, 2-propyl-3-Methyl-N-(4-sulfamoyl-phenyl)-pentanamide] | 0/1 | 0/1 | 1/3 | 2/3 | 1/1 | 1/1 | 0/1 0/1 0/1 | 0/1 0/1 0/1 | 0/1 0/1 0/1 | 0/1 0/1 0/1 | 0/1 0/1 0/1 | 0/1 0/1 0/1 | 25 | 25 | 50 | 25 | 0 | – |
| 203 to 205 | CCC(C)C(CC)C(=O)Nc1ccc(S(N)(=O)=O)cc1 (centres unmarked) [Compound 19, 2-Ethyl-3-methyl-N-(4-sulfamoyl-phenyl)-pentanamide] | 0/1 | 0/1 | 3/7 | 3/3 | 4/5 | 1/1 | 0/1 0/1 0/1 | 0/1 0/1 0/1 | 0/1 0/1 0/1 | 0/1 0/1 0/1 | 0/1 0/1 0/1 | 0/1 0/1 0/1 | 0 | 75 | 100 | 75 | 0 | – |
| 205 to 207 | CC(C)(C)CC(=O)NCc1ccc(S(N)(=O)=O)cc1 [Compound 27, 3,3-Dimethyl-N-(4-sulfamoyl-benzyl)-butyramide] | 0/1 | 0/1 | 0/3 | 1/3 | 0/1 | 1/1 | 0/1 0/1 0/1 | 0/1 0/1 0/1 | 0/1 0/1 0/1 | 0/1 0/1 0/1 | 0/1 0/1 0/1 | 0/1 0/1 0/1 | 0 | 25 | 50 | 50 | 0 | – |

Second part, the compound before the results:

| Structure (SMILES) | melting point [°C] | MES (number of animals protected/number of animals tested) [1, 6] | MES (number of animals protected/number of animals tested) [1, 7] | MES (number of animals protected/number of animals tested) [1, 8] | MES (number of animals protected/number of animals tested) [1, 9] | MES (number of animals protected/number of animals tested) [1, 10] | MES (number of animals protected/number of animals tested) [1, 11] | scMet (number of animals protected/number of animals tested) [2, 6] | scMet (number of animals protected/number of animals tested) [2, 7] | scMet (number of animals protected/number of animals tested) [2, 8] | scMet (number of animals protected/number of animals tested) [2, 9] | scMet (number of animals protected/number of animals tested) [2, 10] | scMet (number of animals protected/number of animals tested) [2, 11] | responders at 30 mg/kg ([5]; 0.5 h) [%] | responders at 30 mg/kg ([5]; 1 h) [%] | responders at 30 mg/kg ([5]; 2 h) [%] | responders at 30 mg/kg ([5]; 4 h) [%] | responders at 30 mg/kg ([5]; […]) [%] | further results |
| --- | --- | --- | --- | --- | --- | --- | --- | --- | --- | --- | --- | --- | --- | --- | --- | --- | --- | --- | --- |
| CCC(CC)C(=O)Nc1ccc(S(N)(=O)=O)cc1 [Compound 11, 2-Ethyl-N-(4-sulfamoyl-phenyl)-butyramide] | – | 1/1 | 1/1 | 3/3 | 3/3 | 1/1 | 1/1 | 0/1 0/1 0/1 | 0/1 0/1 0/1 | 0/1 0/1 0/1 | 0/1 0/1 0/1 | 0/1 0/1 0/1 | 0/1 0/1 0/1 | 75 | 100 | 100 | 100 | 25 | activity in the scMet test ([3]; doses up to 250 mg/kg): inactive; PI, protective index (PI = TD50/ED50) in the scMet test [3]: >2; TD50 (in vivo): > 500 mg/kg; ED50 [4]: > 250 mg/kg; ED50 [5, 12]: ~10 mg/kg; anticonvulsant potency relative to valproic acid (times greater) ([5]; rat-MES, versus VPA): 49 times; rat-MES PI relative to VPA (times higher) ([5]; rat-MES, versus VPA): about 31 times; MES ED50 ([5]; rats dosed orally, interval in parentheses = 95% confidence interval): 9.9 (6.5-14.5) mg/kg |
| CCC(CC)C(=O)NCc1ccc(S(N)(=O)=O)cc1 [Compound 28, 2-Ethyl-N-(4-sulfamoyl-benzyl)-butyramide] | 148 to 150 | 0/1 | 0/1 | 3/3 | 1/3 | 1/1 | 1/1 | 0/1 0/1 0/1 | 0/1 0/1 0/1 | 0/1 0/1 0/1 | 0/1 0/1 0/1 | 0/1 0/1 0/1 | 0/1 0/1 0/1 | 25 | 50 | 0 | 0 | 25 | PI, protective index (PI = TD50/ED50) in the scMet test [3]: >2; TD50 (in vivo): > 500 mg/kg; ED50 [4]: > 250 mg/kg; ED50 [5, 12]: 24.7 mg/kg |
| CC(C)C(C(=O)Nc1ccc(S(N)(=O)=O)cc1)C(C)C [Compound 13, 2-Isopropyl-3-methyl-N-(4-sulfamoyl-phenyl)-butyramide] | – | 0/1 | 0/1 | 0/3 | 0/3 | 0/1 | 0/1 | 0/1 0/1 0/1 | 0/1 0/1 0/1 | 0/1 0/1 0/1 | 0/1 0/1 0/1 | 0/1 0/1 0/1 | 0/1 0/1 0/1 | 0 | 0 | 0 | 50 | 0 | – |
| CC(C)(C)C(=O)NCc1ccc(S(N)(=O)=O)cc1 [Compound 26, 2,2-Dimethyl-N-(4-sulfamoyl-benzyl)-propionamide] | 157 to 158 | 0/1 | 0/1 | 0/3 | 0/3 | 0/1 | 0/1 | 0/1 0/1 0/1 | 0/1 0/1 0/1 | 0/1 0/1 0/1 | 0/1 0/1 0/1 | 0/1 0/1 0/1 | 0/1 0/1 0/1 | – | – | – | – | – | – |
